Assay results reported in US10160755B2 (Plexxikon Inc., priority 2015, dated 2018).

These molecules were tested against T1, FLT3-D835Y (Homo sapiens, UniProt P36888, D835Y) (assay: FLT3-D835Y biochemical kinase assay (AlphaScreen)).
T1 construct: purchased Invitrogen PV3967
T1 sequence (P36888 27-993 D835Y): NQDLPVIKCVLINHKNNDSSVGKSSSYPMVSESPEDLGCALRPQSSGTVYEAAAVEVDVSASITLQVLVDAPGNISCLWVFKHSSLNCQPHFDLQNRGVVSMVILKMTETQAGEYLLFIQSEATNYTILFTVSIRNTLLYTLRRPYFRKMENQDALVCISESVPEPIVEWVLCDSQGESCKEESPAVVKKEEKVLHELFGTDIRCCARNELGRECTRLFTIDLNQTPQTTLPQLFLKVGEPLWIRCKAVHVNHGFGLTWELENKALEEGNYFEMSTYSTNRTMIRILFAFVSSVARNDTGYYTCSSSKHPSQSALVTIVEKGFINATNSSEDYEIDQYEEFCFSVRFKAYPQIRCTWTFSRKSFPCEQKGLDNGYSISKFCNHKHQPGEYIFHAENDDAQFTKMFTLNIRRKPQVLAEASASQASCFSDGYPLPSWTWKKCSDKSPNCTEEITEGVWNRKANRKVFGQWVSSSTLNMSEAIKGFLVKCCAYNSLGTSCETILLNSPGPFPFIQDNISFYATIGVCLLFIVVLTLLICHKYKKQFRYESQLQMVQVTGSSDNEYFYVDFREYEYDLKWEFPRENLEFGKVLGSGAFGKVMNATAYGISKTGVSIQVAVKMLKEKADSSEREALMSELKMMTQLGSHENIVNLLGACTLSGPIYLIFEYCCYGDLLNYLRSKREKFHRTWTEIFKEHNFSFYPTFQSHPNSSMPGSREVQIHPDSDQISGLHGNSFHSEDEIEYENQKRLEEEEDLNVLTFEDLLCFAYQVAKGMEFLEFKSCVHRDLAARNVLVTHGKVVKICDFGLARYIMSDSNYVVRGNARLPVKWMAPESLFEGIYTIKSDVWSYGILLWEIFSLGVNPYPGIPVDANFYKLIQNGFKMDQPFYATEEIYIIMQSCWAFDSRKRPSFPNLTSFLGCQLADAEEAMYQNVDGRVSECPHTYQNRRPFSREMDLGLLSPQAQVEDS
Procedure, shortened: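 Recombinant enzyme phosphorylated biotin-poly(Glu4-Tyr) peptide (30 nM final); ATP final 10 μM for FLT3-D835Y, 100 μM for FLT3-ITD. AlphaScreen read-out: streptavidin donor and anti-phosphotyrosine (PY20) acceptor beads, 20 and 60 min at room temperature; inhibition seen as drop in 580 nm proximity signal; IC50 determined.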

IC50 [µM]	Compound
0.0001 to 1	COc1cnc2[nH]cc(-c3ccc4ncn(-c5ccc(Cl)cc5)c4c3)c2c1 [P-104, 1-(4-chlorophenyl)-6-(5-methoxy-1H-pyrrolo[2,3-b]pyridin-3-yl)benzimidazole]
0.0001 to 1	COc1cnc2[nH]cc(-c3ccc4ncn(-c5cccc(C#N)c5)c4c3)c2c1 [P-135, 3-[6-(5-methoxy-1H-pyrrolo[2,3-b]pyridin-3-yl)benzimidazol-1-yl]benzonitrile]
0.0001 to 1	COc1cc(-c2cnc3[nH]cc(-c4ccc5ncn(C(C)(C)C)c5c4)c3n2)ccn1 [P-099, 7-(3-tert-butylbenzimidazol-5-yl)-2-(2-methoxy-4-pyridyl)-5H-pyrrolo[2,3-b]pyrazine]
0.0001 to 1	COc1ncc(-c2cnc3[nH]cc(-c4ccc5ncn(C(C)C)c5c4)c3c2)cn1 [P-269, 1-isopropyl-6-[5-(2-methoxypyrimidin-5-yl)-1H-pyrrolo[2,3-b]pyridin-3-yl]benzimidazole]
0.0001 to 1	C#Cc1cnc2[nH]cc(-c3ccc4ncn(C(C)(C)C)c4c3)c2c1 [P-244, 1-tert-butyl-6-(5-ethynyl-1H-pyrrolo[2,3-b]pyridin-3-yl)benzimidazole]
0.0001 to 1	CC(C)(C)n1cnc2ccc(-c3c[nH]c4ncc(-c5cnn(C(F)F)c5)cc34)cc21 [P-251, 1-tert-butyl-6-[5-[1-(difluoromethyl)pyrazol-4-yl]-1H-pyrrolo[2,3-b]pyridin-3-yl]benzimidazole]
0.0001 to 1	COc1cnc2[nH]cc(-c3ccc4ncn(-c5cccc(Cl)c5)c4c3)c2c1 [P-105, 1-(3-chlorophenyl)-6-(5-methoxy-1H-pyrrolo[2,3-b]pyridin-3-yl)benzimidazole]
0.0001 to 1	Cn1cnc2ccc(-c3c[nH]c4ncc(-c5cnn(CC(F)(F)F)c5)cc34)cc21 [P-175, 1-methyl-6-[5-[1-(2,2,2-trifluoroethyl)pyrazol-4-yl]-1H-pyrrolo[2,3-b]pyridin-3-yl]benzimidazole]
0.0001 to 1	COc1cnc2[nH]cc(-c3ccc4ncn(Cc5ccc(F)cc5)c4c3)c2c1 [P-110, 1-[(4-fluorophenyl)methyl]-6-(5-methoxy-1H-pyrrolo[2,3-b]pyridin-3-yl)benzimidazole]
0.0001 to 1	COc1cc(C#Cc2cnc3[nH]cc(-c4ccc5ncn(C(C)(C)C)c5c4)c3c2)ccn1 [P-240, 1-(tert-butyl)-6-(5-((2-methoxypyridin-4-yl)ethynyl)-1H-pyrrolo[2,3-b]pyridin-3-yl)-1H-benzo[d]imidazole]
0.0001 to 1	CC(C)(C)n1cnc2ccc(-c3c[nH]c4ncc(-c5cccc(N6CCCCS6(=O)=O)c5)cc34)cc21 [P-221, 2-[3-[3-(3-tert-butylbenzimidazol-5-yl)-1H-pyrrolo[2,3-b]pyridin-5-yl]phenyl]thiazinane 1,1-dioxide]
0.0001 to 1	COc1cnc2[nH]cc(-c3ccc4ncn(-c5ccc(F)cc5)c4c3)c2c1 [P-103, 1-(4-fluorophenyl)-6-(5-methoxy-1H-pyrrolo[2,3-b]pyridin-3-yl)benzimidazole]
0.0001 to 1	CC(C)(C)n1cnc2ccc(-c3c[nH]c4ncc(C#Cc5cccc(C#N)c5)cc34)cc21 [P-242, 3-[2-[3-(3-tert-butylbenzimidazol-5-yl)-1H-pyrrolo[2,3-b]pyridin-5-yl]ethynyl]benzonitrile]
0.0001 to 1	COc1cc(C(=O)Nc2cnc3[nH]cc(-c4ccc5ncn(C(C)(C)C)c5c4)c3c2)ccn1 [P-245, N-[3-(3-tert-butylbenzimidazol-5-yl)-1H-pyrrolo[2,3-b]pyridin-5-yl]-2-methoxy-pyridine-4-carboxamide]

Further lines, the molecule ahead of its results:

Compound	IC50 [µM]
CC(C)(C)n1cnc2ccc(-c3c[nH]c4ncc(-c5cccc(S(=O)(=O)N6CCCC6)c5)cc34)cc21 [P-220, 1-tert-butyl-6-[5-(3-pyrrolidin-1-ylsulfonylphenyl)-1H-pyrrolo[2,3-b]pyridin-3-yl]benzimidazole]	0.0001 to 1
FC(F)(F)Oc1cccc(-c2cnc3[nH]cc(-c4ccc5ncn(C6CCCNC6)c5c4)c3n2)c1 (stereo not drawn) [P-193, 7-[3-(3-piperidyl)benzimidazol-5-yl]-2-[3-(trifluoromethoxy)phenyl]-5H-pyrrolo[2,3-b]pyrazine]	0.0001 to 1
CC(C)(C)n1cnc2ccc(-c3c[nH]c4ncc(C#Cc5cccc(OC(F)(F)F)c5)nc34)cc21 [P-249, 7-(3-tert-butylbenzimidazol-5-yl)-2-[2-[3-(trifluoromethoxy)phenyl]ethynyl]-5H-pyrrolo[2,3-b]pyrazine]	0.0001 to 1
CC(C)(CO)n1cnc2ccc(-c3c[nH]c4ncc(-c5cccc(NS(C)(=O)=O)c5)nc34)cc21 [P-115, N-[3-[7-[3-(2-hydroxy-1,1-dimethyl-ethyl)benzimidazol-5-yl]-5H-pyrrolo[2,3-b]pyrazin-2-yl]phenyl]methanesulfonamide]	0.0001 to 1
CC(C)(C)n1cnc2ccc(-c3c[nH]c4ncc(-c5cnn(CC(F)(F)F)c5)cc34)cc21 [P-252, 1-tert-butyl-6-[5-[1-(2,2,2-trifluoroethyl)pyrazol-4-yl]-1H-pyrrolo[2,3-b]pyridin-3-yl]benzimidazole]	0.0001 to 1
C(#Cc1cnc2[nH]cc(-c3ccc4ncn(C5CCCNC5)c4c3)c2n1)c1ccccc1 (stereo not drawn) [P-248, 2-(2-phenylethynyl)-7-[3-(3-piperidyl)benzimidazol-5-yl]-5H-pyrrolo[2,3-b]pyrazine]	0.0001 to 1
O=S(=O)(c1cccc(-c2cnc3[nH]cc(-c4ccc5ncn(C6CCCNC6)c5c4)c3n2)c1)N1CCCC1 (stereo not drawn) [P-237, 7-[3-(3-piperidyl)benzimidazol-5-yl]-2-(3-pyrrolidin-1-ylsulfonylphenyl)-5H-pyrrolo[2,3-b]pyrazine]	0.0001 to 1
FC(F)(F)Cn1cc(-c2cnc3[nH]cc(-c4ccc5ncn(C6CCCNC6)c5c4)c3n2)cn1 (stereo not drawn) [P-258, 7-[3-(3-piperidyl)benzimidazol-5-yl]-2-[1-(2,2,2-trifluoroethyl)pyrazol-4-yl]-5H-pyrrolo[2,3-b]pyrazine]	0.0001 to 1
COC(=O)N1CCCC(n2cnc3ccc(-c4c[nH]c5ncc(-c6ccnc(OC)c6)nc45)cc32)C1 (stereo not drawn) [P-261, methyl 3-(6-(2-(2-methoxypyridin-4-yl)-5H-pyrrolo[2,3-b]pyrazin-7-yl)-1H-benzo[d]imidazol-1-yl)piperidine-1-carboxylate]	0.0001 to 1
O=S1(=O)CCCCN1c1cccc(-c2cnc3[nH]cc(-c4ccc5ncn(C6CCCNC6)c5c4)c3c2)c1 (stereo not drawn) [P-224, 2-[3-[3-[3-(3-piperidyl)benzimidazol-5-yl]-1H-pyrrolo[2,3-b]pyridin-5-yl]phenyl]thiazinane 1,1-dioxide]	0.0001 to 1
CC(C)(C)n1cnc2ccc(-c3c[nH]c4ncc(-c5cccc(N6CCCCS6(=O)=O)c5)nc34)cc21 [P-227, 2-[3-[7-(3-tert-butylbenzimidazol-5-yl)-5H-pyrrolo[2,3-b]pyrazin-2-yl]phenyl]thiazinane 1,1-dioxide]	0.0001 to 1
O=S1(=O)CCCN1c1cccc(-c2cnc3[nH]cc(-c4ccc5ncn(C6CCCNC6)c5c4)c3n2)c1 (stereo not drawn) [P-273, 2-[3-[7-[3-(3-piperidyl)benzimidazol-5-yl]-5H-pyrrolo[2,3-b]pyrazin-2-yl]phenyl]-1,2-thiazolidine 1,1-dioxide]	0.0001 to 1
CC(C)S(=O)(=O)Nc1cccc(-c2cnc3[nH]cc(-c4ccc5ncn(C6CCCNC6)c5c4)c3c2)c1 (stereo not drawn) [P-215, N-[3-[3-[3-(3-piperidyl)benzimidazol-5-yl]-1H-pyrrolo[2,3-b]pyridin-5-yl]phenyl]propane-2-sulfonamide]	0.0001 to 1
